Values quoted from earlier work in patent US20170051350A1, “METHOD AND SYSTEM TO PREDICT RESPONSE TO TREATMENTS FOR MENTAL DISORDERS” (Pathway Genomics Corporation, priority 2013, published 2017).
Where two headings read alike, the source gives them in different places.

Legend:
CYP2D6 = conditions: cited from earlier work
HTR2C = target: T1, HTR2C (Homo sapiens, UniProt P28335); conditions: HTR2C rs3813929 T/C, T (outcome: reduced weight gain); cited from earlier work
T1 construct: endogenous in cells; host or cells: patients (in vivo)
T1 sequence (P28335 33-458): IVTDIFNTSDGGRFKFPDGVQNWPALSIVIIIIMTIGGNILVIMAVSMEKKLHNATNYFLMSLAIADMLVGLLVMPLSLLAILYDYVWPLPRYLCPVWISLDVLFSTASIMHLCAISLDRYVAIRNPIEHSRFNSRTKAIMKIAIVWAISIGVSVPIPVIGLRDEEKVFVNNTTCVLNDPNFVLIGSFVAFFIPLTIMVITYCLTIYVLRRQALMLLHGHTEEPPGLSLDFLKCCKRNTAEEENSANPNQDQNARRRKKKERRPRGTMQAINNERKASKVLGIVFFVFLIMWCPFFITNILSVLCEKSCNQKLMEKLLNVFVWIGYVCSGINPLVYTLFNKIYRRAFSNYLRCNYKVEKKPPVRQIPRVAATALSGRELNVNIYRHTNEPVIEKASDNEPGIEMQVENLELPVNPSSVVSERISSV

genes affecting efficacy = conditions: cited from earlier work; for depression improvement (Category): BDNF rs61888800, full wording: Depression may improve more than average, source PMID 20435227 Suppl Table 3a
[1] = test system: genes affecting adverse reactions; conditions: source PMID 20435227 Suppl Table 3c, cited from earlier work
HLA genotypes = conditions: cited from earlier work
[2] = CYP2D6 Intermediate Metabolizer

CN(C)CCC=C1c2ccccc2CCc2ccccc21 [Amitriptyline]
plasma concentrations (drug, or drug combined with its active metabolite) (CYP2D6; [2]): may have increased | risk of adverse effects (CYP2D6; [2]): increased risk | plasma concentrations (drug, or drug combined with its active metabolite) (CYP2D6; CYP2D6 Poor Metabolizer): increased plasma | risk of adverse effects (CYP2D6; CYP2D6 Poor Metabolizer): increased risk

CN1CC2c3ccccc3Oc3ccc(Cl)cc3C2C1 (stereo not drawn) [Asenapine]
risk of weight gain (HTR2C): Patient has decreased risk of weight gain if treated with atypical antipsychotics, including asenapine (PMID 19636338,

CNCCCN1c2ccccc2CCc2ccccc21 [Desipramine]
plasma concentrations (drug, or drug combined with its active metabolite) (CYP2D6; [2]): Patient may have increased plasma concentrations of desipramine at standard doses (PMID 9049581, PMID 3816019, | plasma concentrations (drug, or drug combined with its active metabolite) (CYP2D6; CYP2D6 Poor Metabolizer): Patient's genotype is associated with increased plasma concentrations of desipramine at standard doses (PMID | risk of adverse effects (CYP2D6; CYP2D6 Poor Metabolizer): 9049581, PMID 3816019, PMID 10895986), which may increase risk of adverse effects. | depression improvement (Category) (genes affecting efficacy): Depression may improve

CN(C)CCC=C1c2ccccc2COc2ccccc21 [Doxepin]
plasma concentrations (drug, or drug combined with its active metabolite) (CYP2D6; [2]): may have increased | risk of adverse effects (CYP2D6; [2]): may increase the risk | plasma concentrations (drug, or drug combined with its active metabolite) (CYP2D6; CYP2D6 Poor Metabolizer): increased | risk of adverse effects (CYP2D6; CYP2D6 Poor Metabolizer): may increase the risk | plasma concentrations (drug, or drug combined with its active metabolite) (CYP2D6; CYP2D6 Ultrarapid Metabolizer): Patient's genotype is associated with decreased plasma concentrations of doxepin. Consider alternative medications,

CNCC[C@H](Oc1cccc2ccccc12)c1cccs1 [Duloxetine]
plasma concentrations (drug, or drug combined with its active metabolite) (CYP2D6; [2]): Patient may have increased plasma concentrations of duloxetine at standard doses (PMID 17380590, 17713974). | plasma concentrations (drug, or drug combined with its active metabolite) (CYP2D6; CYP2D6 Poor Metabolizer): Patient may have increased plasma concentrations of duloxetine at standard doses (PMID 17380590, 17713974).

CNCCC(Oc1ccc(C(F)(F)F)cc1)c1ccccc1 (stereo not drawn) [Fluoxetine]
depression improvement (Category) (genes affecting efficacy): Depression may improve

O=C(CCCN1CCC(O)(c2ccc(Cl)cc2)CC1)c1ccc(F)cc1 [Haloperidol]
plasma concentrations (drug, or drug combined with its active metabolite) (CYP2D6; [2]): Patient may have increased plasma concentrations of haloperidol (PMID 12386646, 10519444, 10096261). | plasma concentrations of reduced haloperidol (CYP2D6; CYP2D6 Poor Metabolizer): fluphenazine, quetiapine, olanzapine or clozapine (PMID 21412232). Patient's genotype is associated with increased | risk of adverse effects (CYP2D6; CYP2D6 Poor Metabolizer): Patient has increased risk of extrapyramidal symptoms and other adverse effects. Consider reducing the dose or | risk of extrapyramidal symptoms (CYP2D6; CYP2D6 Ultrarapid metabolizer, in one study): In one study, individuals with this patient's CYP2D6 metabolizer status had a slightly increased risk of extrapyramidal

O=C1[C@@H]2[C@H]3CC[C@H](C3)[C@@H]2C(=O)N1C[C@@H]1CCCC[C@H]1CN1CCN(c2nsc3ccccc23)CC1 [Lurasidone]
risk of weight gain (HTR2C): Patient has decreased risk of weight gain if treated with atypical antipsychotics, including lurasidone (PMID 19636338,

CN1CCN2c3ncccc3Cc3ccccc3C2C1 (stereo not drawn) [Mirtazapine]
plasma concentrations (drug, or drug combined with its active metabolite) (CYP2D6; [2]): Patient may have increased plasma concentrations of mirtazapine, though it is unclear if increased plasma | plasma concentrations (drug, or drug combined with its active metabolite) (CYP2D6; CYP2D6 Poor Metabolizer): Patient may have increased plasma concentrations of mirtazapine at standard doses, though it is unclear if increased

CNCCC=C1c2ccccc2CCc2ccccc21 [Nortriptyline]
plasma concentrations (drug, or drug combined with its active metabolite) (CYP2D6; [2]): Patient's genotype is associated with increased plasma concentrations of nortriptyline at standard doses (PMID | plasma concentrations (drug, or drug combined with its active metabolite) (CYP2D6; CYP2D6 Poor Metabolizer): Patient's genotype is associated with increased plasma concentrations of nortriptyline at standard doses (PMID | plasma concentrations (drug, or drug combined with its active metabolite) (CYP2D6; CYP2D6 Ultrarapid Metabolizer): Patient's genotype is associated with decreased plasma concentrations of nortriptyline at standard doses (PMID | Escitalopram, Nortriptyline, response (Category) (genes affecting efficacy; NR3C1 rs10482633, full wording: Depression may not respond as well, source PMID 20435227 Suppl Table 3b): Depression may not respond

Cc1cc2c(s1)Nc1ccccc1N=C2N1CCN(C)CC1 [Olanzapine]
Olanzapine, weight gain (Category) ([1]; ADRB3 rs4994, ADRB3:Trp64Arg): Less likely to gain weight | Olanzapine, weight gain (Category) ([1]; GNB3 rs5443, GNB3:825C > T): More likely to gain weight | Olanzapine, weight gain (Category) ([1]; HTR2A rs6313, HTR2A:T102C): More likely to gain weight | Olanzapine, weight gain (Category) ([1]; HTR2C rs6318, HTR2C:Cys23Ser): More likely to gain weight | Olanzapine, weight gain (Category) ([1]; HTR2C rs518147, HTR2C: −697G/C): Less likely to gain weight

Cc1nc2n(c(=O)c1CCN1CCC(c3noc4cc(F)ccc34)CC1)CCCC2O (stereo not drawn) [Paliperidone]
risk of weight gain (HTR2C): Patient has decreased risk of weight gain if treated with atypical antipsychotics, including paliperidone (PMID

Fc1ccc([C@@H]2CCNC[C@H]2COc2ccc3c(c2)OCO3)cc1 [Paroxetine]
risk of adverse effects (CYP2D6; [2]): paroxetine, which may increase risk of sexual dysfunction (PMID 8880055, 12870705, 1531950). | risk of adverse effects (CYP2D6; CYP2D6 Poor Metabolizer): Patient may have increased risk of drug-drug interactions [PMID 16476833] and sexual dysfunction [PMID 12870705].

OCCN1CCN(CCCN2c3ccccc3Sc3ccc(Cl)cc32)CC1 [Perphenazine]
plasma concentrations (drug, or drug combined with its active metabolite) (CYP2D6; [2]): Patient's genotype is associated with increased plasma concentrations of perphenazine (PMID 17429316, 8612387), | plasma concentrations (drug, or drug combined with its active metabolite) (CYP2D6; CYP2D6 Poor Metabolizer): Patient's genotype is associated with increased plasma concentrations of perphenazine (PMID 17429316, 8612387, | risk of adverse effects (CYP2D6; CYP2D6 Poor Metabolizer): 8689810), which may increase risk of adverse effects (FDA approved perphenazine drug label, PMID 9333110, | plasma concentrations (drug, or drug combined with its active metabolite) (CYP2D6; CYP2D6 Ultrarapid Metabolizer): Patient's genotype is associated with decreased plasma concentrations of perphenazine.

OCCOCCN1CCN(C2=Nc3ccccc3Sc3ccccc32)CC1 [Quetiapine]
risk of weight gain (HTR2C): Patient has decreased risk of weight gain if treated with atypical antipsychotics, including quetiapine (PMID 19636338,

CC(CN(C)C)CN1c2ccccc2CCc2ccccc21 (stereo not drawn) [Trimipramine]
plasma concentrations (drug, or drug combined with its active metabolite) (CYP2D6; [2]): Patient's genotype is associated with increased plasma concentrations of trimipramine and desmethyltrimipramine | plasma concentrations (drug, or drug combined with its active metabolite) (CYP2D6; CYP2D6 Poor Metabolizer): Patient's genotype is associated with increased plasma concentrations of trimipramine and desmethyltrimipramine | risk of adverse effects (CYP2D6; CYP2D6 Poor Metabolizer): patient may be at increased risk of adverse effects, such as sedation (PMID 14646691). | plasma concentrations (drug, or drug combined with its active metabolite) (CYP2D6; CYP2D6 Ultrarapid Metabolizer): decreased | risk of therapeutic failure (CYP2D6; CYP2D6 Ultrarapid Metabolizer): increased risk

COc1ccc(C(CN(C)C)C2(O)CCCCC2)cc1 (stereo not drawn) [Venlafaxine]
risk of adverse effects (CYP2D6; [2]): 10233212, 10877013), which may increase risk of adverse effects (PMID 17803873). Consider alternative medications, | levels of the active metabolite, O-desmethylvenlafaxine, at standard doses (CYP2D6; CYP2D6 Poor Metabolizer): decreased | risk of adverse effects (CYP2D6; CYP2D6 Poor Metabolizer): 18214456, 19593180, 21288052); therefore, the patient may have an increased risk of adverse effects at standard | plasma levels of the active metabolite, O-desmethylvenlafaxine, at standard doses (CYP2D6; CYP2D6 Ultrarapid Metabolizer): Patient's genotype is associated with increased plasma levels of the active metabolite, O-desmethylvenlafaxine, and

O=C1Cc2cc(CCN3CCN(c4nsc5ccccc45)CC3)c(Cl)cc2N1 [Ziprasidone]
risk of weight gain (HTR2C): Patient has decreased risk of weight gain if treated with atypical antipsychotics, including ziprasidone (PMID

OCCN1CCN(CC/C=C2/c3ccccc3Sc3ccc(Cl)cc32)CC1 [Zuclopenthixol]
plasma concentrations (drug, or drug combined with its active metabolite) (CYP2D6; [2]): Patient may have increased plasma concentrations of zuclopenthixol (PMID 1927573, 8946657, 12107620, 8612387, | risk of adverse effects (CYP2D6; [2]): 20946203), which may increase risk of adverse effects (PMID 20175668, 12107620). Consider reducing the dose by | plasma concentrations (drug, or drug combined with its active metabolite) (CYP2D6; CYP2D6 Poor Metabolizer): Patient's genotype is associated with increased plasma concentrations of zuclopenthixol (PMID 1927573, 8946657, | risk of adverse effects (CYP2D6; CYP2D6 Poor Metabolizer): 12107620, 8612387, 20946203), which may increase risk of adverse effects (PMID 20175668, 12107620). Consider

Nc1nc(NC2CC2)c2ncn([C@H]3C=C[C@@H](CO)C3)c2n1 [abacavir]
hypersensitivity (HLA genotypes; HLA-B*5701): associated

Oc1ncnc2[nH]ncc12 [allopurinol]
drug eruption (HLA genotypes; HLA-Aw33, B17/Bw58): associated | severe cutaneous adverse reactions (HLA genotypes; HLA-B*5801): associated

Cc1c(N(C)CS(=O)(=O)[O-])c(=O)n(-c2ccccc2)n1C.[Na+] [dipyrone]
agranulocytosis (HLA genotypes; HLA-A24, B7, DQwI): associated

NNc1nncc2ccccc12 [hydralazine]
SLE (HLA genotypes; HLA-DR4): associated

c1ccc([C@H]2CN3CCSC3=N2)cc1 [levamisole]
agranulocytosis (HLA genotypes; HLA-B27): associated

CC(=O)/N=c1/sc(S(N)(=O)=O)nn1C [methazolamide]
SJS (HLA genotypes; HLA-B59): associated

CC(C)(S)[C@@H](N)C(=O)O [penicillamine]
toxicity (HLA genotypes; HLA-DR3): associated
